The term melting point denotes the temperature, or range, at which the solid turns liquid. Usually ED50 stands for the midpoint of the dose-response relation.

The values that follow come from US8524766B2, “Modulators of dopamine neurotransmission” (NSAB, Filial af Neurosearch Sweden AB, Sverige, priority 2008, dated 2013).

Data set [1] has as its system DOPAC (3,4-dihydroxyphenylacetic acid) in the rat striatum. In words: Increase of DOPAC in the rat striatum after systemic administration (in vivo neurochemistry). Particulars: sc; estimated ED50 on increase of DOPAC in rat striatum, systemic administration (s.c.), curve fitting. From the text: After the behavioural activity sessions, the rats are decapitated and their brains rapidly taken out and put on an ice-cold petri-dish. The limbic forebrain, the striatum, the frontal cortex and the remaining hemispheral parts of each rat are dissected and frozen. Each brain part is subsequently analyzed with respect to its content of monoamines and their metabolites.
The monoamine transmitter substances (NA (noradrenaline), DA (dopamine), 5-HT (serotonin)) as well as their amine (NM (normethanephrine), 3-MT (3-methoxytyramine)) and acid (DOPAC (3,4-dihydroxyphenylacetic acid), 5-HIAA (5-hydroxyindoleacetic acid), HVA (homovanillic acid)) metabolites are quantified in brain tissue homogenates by HPLC separations and electrochemical detection.
The analytical method is based on two chromatographic separations dedicated for amines or acids. Two chromatographic systems share a common auto injector with a 10-port valve and two sample loops for simultaneous injection on the two systems. Both systems are equipped with a reverse phase column (Luna C18(2), dp 3 μm, 50*2 mm i.d., Phenomenex) and electrochemical detection is accomplished at two potentials on glassy carbon electrodes (MF-1000, Bioanalytical Systems, Inc.). The column effluent is passed via a T-connection to the detection cell or to a waste outlet. This is accomplished by two solenoid valves, which block either the waste or detector outlet. By preventing the chromatographic front from reaching the detector, better detection conditions are achieved. The aqueous mobile phase (0.4 ml/min) for the acid system contains citric acid 14 mM, sodium citrate 10 mM, MeOH 15% (v/v) and EDTA 0.1 mM. Detection potentials relative to Ag/AgCl reference are 0.45 and 0.60V. The aqueous ion pairing mobile phase (0.5 ml/min) for the amine system contains citric acid 5 mM, sodium citrate 10 mM, MeOH 9% (v/v), MeCN 10.5% v/v), decane sulfonic acid 0.45 mM, and EDTA 0.1 mM. Detection potentials relative to Ag/AgCl reference are 0.45 and 0.65V.
ED50 values for the increase of DOPAC in striatum are calculated by curve fitting.

The subject of another data set is drug-naive rats. In words: Locomotor activity in drug-naive rats (in vivo behaviour). Also noted: species or system rat. Particulars: recorded for 60 minutes, ± SEM. The source says: Photobeam sensors are spaced 2.5 cm apart.

SMILES strings stand for the structures. Where a name gives a salt, the structure may show the parent alone.

Take `CC1CCCN(C[C@@H]2COc3ccc(S(C)(=O)=O)cc3O2)C1` (some centres unmarked) (as salt: fumaric acid salt): the melting point is 159 °C.
In turn, `CS(=O)(=O)c1ccc2c(c1)OC(CN1CCCC1)CO2` (centres unmarked) (as salt: hydrochloric acid salt) gave a melting point of 221 °C.
In the case of `CC(C)CNC[C@@H]1COc2ccc(S(C)(=O)=O)cc2O1` (as salt: hydrochloric acid salt), the melting point is 213 °C.
As for `CC(C)CNC[C@H]1COc2ccc(S(C)(=O)=O)cc2O1` (as salt: hydrochloric acid salt), the melting point worked out at 214 °C.
Turning to `CNCC1COc2c(F)cc(S(C)(=O)=O)cc2O1` (centres unmarked) (as salt: hydrochloric acid salt), the melting point turned out to be 243 °C.
Consider `CCNC[C@H]1COc2ccc(S(=O)(=O)C(F)(F)F)cc2O1` (as salt: hydrochloric acid salt), for which the melting point is 208 °C.
For the compound `CCNC[C@H]1COc2ccc(S(C)(=O)=O)c(F)c2O1` (as salt: hydrochloric acid salt), the melting point came out at 270 °C.
`CCNC[C@H]1COc2c(Cl)cc(S(C)(=O)=O)cc2O1` (as salt: hydrochloric acid salt): the melting point was found to be 267 °C.
`CS(=O)(=O)c1ccc2c(c1)O[C@@H](CNCCC(F)(F)F)CO2` (as salt: hydrochloric acid salt): the melting point was 204 °C.
On the same count and under the same terms, next, `CCNCC1COc2ccc(S(C)(=O)=O)cc2O1` (centres unmarked) (as salt: hydrochloric acid salt): 261 °C.
With `CS(=O)(=O)c1cc(F)c2c(c1)O[C@@H](CNCCC(F)(F)F)CO2` (as salt: hydrochloric acid salt), the melting point stood at 233 °C.
Consider `CNC[C@H]1COc2c(F)cc(S(C)(=O)=O)cc2O1` (as salt: hydrochloric acid salt), for which the melting point was 260 °C.
`CCNC[C@H]1COc2ccc(S(C)(=O)=O)cc2O1` (as salt: hydrochloric acid salt) displayed a melting point of 271 °C.
`CNC[C@H]1COc2c(Cl)cc(S(C)(=O)=O)cc2O1` (as salt: hydrochloric acid salt) had a melting point of 262 °C.
Still for that read-out and setting: next, `CC(C)(C)CNC[C@H]1COc2ccc(S(C)(=O)=O)cc2O1` (as salt: hydrochloric acid salt): 242 °C; `CS(=O)(=O)c1cc(F)c2c(c1)O[C@@H](CN1CCOCC1)CO2` (as salt: hydrochloric acid salt): 251 °C; `CCCNCC1COc2ccc(S(C)(=O)=O)cc2O1` (centres unmarked) (as salt: hydrochloric acid salt) [Example 1, N-{[7-(METHYLSULFONYL)-2,3-DIHYDRO-1,4-BENZODIOXIN-2-YL]METHYL}-PROPAN-1-AMINE]: 223 °C.
`CCCNC[C@@H]1COc2ccc(S(C)(=O)=O)cc2O1` (as salt: hydrochloric acid salt) [Example 2, N-{[(2R)-7-(METHYLSULFONYL)-2,3-DIHYDRO-1,4-BENZODIOXIN-2-YL]METHYL}-PROPAN-1-AMINE] registered a melting point of 228 °C.
The compound `CCCNC[C@H]1COc2ccc(S(C)(=O)=O)cc2O1` (as salt: hydrochloric acid salt) [Example 3, N-{[(2S)-7-(METHYLSULFONYL)-2,3-DIHYDRO-1,4-BENZODIOXIN-2-YL]METHYL}-PROPAN-1-AMINE] had a melting point of 228 °C.
`CS(=O)(=O)c1ccc2c(c1)OC(CN1CCCCC1)CO2` (centres unmarked) (as salt: hydrochloric acid salt) [Example 6, 1-{[7-(METHYLSULFONYL)-2,3-DIHYDRO-1,4-BENZODIOXIN-2-YL]METHYL}PIPERIDINE] registered a melting point of 248 °C.
Regarding `CS(=O)(=O)c1ccc2c(c1)O[C@@H](CN1CCCCC1)CO2` (as salt: hydrochloric acid salt) [Example 7, 1-{[(2S)-7-(METHYLSULFONYL)-2,3-DIHYDRO-1,4-BENZODIOXIN-2-YL]METHYL}PIPERIDINE], the melting point amounted to 227 °C.
For `CS(=O)(=O)c1ccc2c(c1)O[C@H](CN1CCCCC1)CO2` (as salt: hydrochloric acid salt) [Example 8, 1-{[(2R)-7-(METHYLSULFONYL)-2,3-DIHYDRO-1,4-BENZODIOXIN-2-YL]METHYL}PIPERIDINE], the melting point is 226 °C.
As for `CNCC1COc2ccc(S(C)(=O)=O)cc2O1` (centres unmarked) (as salt: hydrochloric acid salt) [Example 9, N-METHYL-1-[7-(METHYLSULFONYL)-2,3-DIHYDRO-1,4-BENZODIOXIN-2-YL]METHANAMINE], the melting point was 273 °C.
In turn, `CNC[C@H]1COc2ccc(S(C)(=O)=O)cc2O1` (as salt: hydrochloric acid salt) [Example 10, N-METHYL-1-[(2S)-7-(METHYLSULFONYL)-2,3-DIHYDRO-1,4-BENZODIOXIN-2-YL]METHANAMINE] showed a melting point of 248 °C.
`CCCN(C)CC1COc2ccc(S(C)(=O)=O)cc2O1` (centres unmarked) (as salt: hydrochloric acid salt) [Example 15, N-METHYL-N-{[7-(METHYLSULFONYL)-2,3-DIHYDRO-1,4-BENZODIOXIN-2-YL]METHYL}PROPAN-1-AMINE] yielded a melting point of 222 °C.
The compound `CCCN(CCC)CC1COc2ccc(S(C)(=O)=O)cc2O1` (centres unmarked) (as salt: hydrochloric acid salt) [Example 16, N-{[7-(METHYLSULFONYL)-2,3-DIHYDRO-1,4-BENZODIOXIN-2-YL]METHYL}-N-PROPYLPROPAN-1-AMINE] displayed a melting point of 182 °C.
Take `CCNCC1COc2c(F)cc(S(C)(=O)=O)cc2O1` (centres unmarked) (as salt: hydrochloric acid salt) [Example 18, N-{[5-FLUORO-7-(METHYLSULFONYL)-2,3-DIHYDRO-1,4-BENZODIOXIN-2-YL]METHYL}ETHANAMINE]: the melting point was found to be 256 °C.
`CCNC[C@H]1COc2c(F)cc(S(C)(=O)=O)cc2O1` (as salt: hydrochloric acid salt) [Example 19, N-{[(2S)-5-FLUORO-7-(METHYLSULFONYL)-2,3-DIHYDRO-1,4-BENZODIOXIN-2-YL]METHYL}ETHANAMINE] had a melting point of 274 °C.
Consider `CCCNC[C@H]1COc2c(F)cc(S(C)(=O)=O)cc2O1` (as salt: hydrochloric acid salt) [Example 21, N-{[(2S)-5-FLUORO-7-(METHYLSULFONYL)-2,3-DIHYDRO-1,4-BENZODIOXIN-2-YL]METHYL}PROPAN-1-AMINE], for which the melting point is 226 °C.
In the case of `CCCNC[C@H]1COc2ccc(S(=O)(=O)C(F)(F)F)cc2O1` (as salt: hydrochloric acid salt) [Example 24, N-{[(2S)-7-(TRIFLUOROMETHYLSULFONYL)-2,3-DIHYDRO-1,4-BENZODIOXIN-2-YL]METHYL}PROPAN-1-AMINE], the melting point was determined as 175 °C.
Regarding `CCCNC[C@H]1COc2c(F)cc(S(C)(=O)=O)cc2O1` (as salt: hydrochloric acid salt) [Example 76, N-{[(2S)-5-FLUORO-7-(METHYLSULFONYL)-2,3-DIHYDRO-1,4-BENZODIOXIN-2-YL]METHYL}-PROPAN-1-AMINE], the melting point was 192 °C.
For `CC(C)NC[C@H]1COc2ccc(S(=O)(=O)C(F)(F)F)cc2O1` (as salt: hydrochloric acid salt) [Example 98, N-({(2S)-7-[(TRIFLUOROMETHYL)SULFONYL]-2,3-DIHYDRO-1,4-BENZODIOXIN-2-YL}METHYL)PROPAN-2-AMINE], the melting point was 196.2 to 196.5 °C.
Consider `CCCNC[C@@H]1COc2ccc(S(C)(=O)=O)cc2O1` [Example 2, N-{[(2R)-7-(METHYLSULFONYL)-2,3-DIHYDRO-1,4-BENZODIOXIN-2-YL]METHYL}-PROPAN-1-AMINE], for which the ED50 in data set [1] was 47 µmol/kg. Besides, the Locomotor activity amounted to 10728 ± 1557 counts/60 min with drug-naive rats (3.7 μmol/kg), 10346 ± 857 counts/60 min with drug-naive rats (11 μmol/kg) and 11427 ± 1559 counts/60 min in the data set on drug-naive rats (33 μmol/kg).
For `CCCNC[C@H]1COc2ccc(S(C)(=O)=O)cc2O1` [Example 3, N-{[(2S)-7-(METHYLSULFONYL)-2,3-DIHYDRO-1,4-BENZODIOXIN-2-YL]METHYL}-PROPAN-1-AMINE], in that order: 6.1 µmol/kg, 10297 ± 860 counts/60 min, 8973 ± 2186 counts/60 min and 6830 ± 128 counts/60 min.
As for `CS(=O)(=O)c1ccc2c(c1)O[C@@H](CN1CCCCC1)CO2` [Example 7, 1-{[(2S)-7-(METHYLSULFONYL)-2,3-DIHYDRO-1,4-BENZODIOXIN-2-YL]METHYL}PIPERIDINE], in data set [1], the ED50 was 12 µmol/kg. Moreover, the Locomotor activity in the data set with drug-naive rats (3.7 μmol/kg) was found to be 7905 ± 656 counts/60 min; with drug-naive rats (11 μmol/kg), 5469 ± 734 counts/60 min; in the data set with drug-naive rats (33 μmol/kg), 3334 ± 780 counts/60 min.
